Data as given in a compilation of properties of binary mixtures (doi:10.1016/j.molliq.2016.11.066).

Test: xn = mol fraction of the nth substance listed
Settings: 101 kPa

COCCO + CCCC[n+]1ccn(C)c1.F[P-](F)(F)(F)(F)F
x2 = 0
Settings | speed of sound [m/s]
298.15 K | 1342.1
303.15 K | 1324.7
308.15 K | 1307.4
313.15 K | 1290.1
318.15 K | 1272.7
323.15 K | 1255.4

CCCC[n+]1ccn(C)c1.F[P-](F)(F)(F)(F)F + COCCO
speed of sound [m/s]
Settings | x1 = 0.0966 | x1 = 0.1943 | x1 = 0.2887 | x1 = 0.3979 | x1 = 0.4792 | x1 = 0.5943 | x1 = 0.6753 | x1 = 0.8101 | x1 = 0.8849 | x1 = 1
298.15 K | 1365.5 | 1384.8 | – | 1407.6 | 1414.1 | – | 1427.3 | 1435.2 | – | 1443.8
303.15 K | 1349.4 | 1369.8 | 1383.3 | – | 1401.4 | 1409.8 | 1414.9 | 1422.8 | – | 1431.7
308.15 K | 1333.3 | 1354.5 | 1369 | – | 1388.8 | 1397.5 | – | 1411 | 1414.9 | 1419.8
313.15 K | 1317.6 | 1339.6 | 1355.1 | 1368.2 | 1376 | 1385.6 | – | 1399.3 | 1403.1 | 1408.2
318.15 K | 1301.5 | 1324.7 | 1341.4 | – | 1363.7 | 1373.6 | – | 1388 | 1391.8 | –
323.15 K | 1285.5 | 1310.1 | 1327.8 | 1343 | 1352.2 | 1362.1 | 1368.3 | 1377.2 | – | 1385.6
